Data reported in PubChem BioAssay AID1845206 (Molecular Pharmacology Branch, DTP, NCI, 2023).
Active and inactive are the calls of the source. The calls were made as follows: active = viability on the fitted dose curve at most 10% of control; inactive = the rest.

System: NCI-H1618 multicellular tumor spheroid viability
Assay: Anticancer human tumor NCI-H1618 cell line growth inhibition;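 also: spheroids exposed to agents for 7 days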
Conditions: for IC50: curve of first compound; for viability, T/C: stronger effect = lower value
Source text: Multicellular complex tumor spheroid response to DNA repair inhibitors in combination with DNA-damaging drugs
This study explores the anticancer activities of DNA-damaging drugs and inhibitors of DNA damage repair, both as single agents and in combinations. Complex tumor spheroids comprised of malignant cells, endothelial cells and mesenchymal stem cells served as an in vitro model for human solid tumors. This model system incorporates physiologically relevant features and patient-derived or established malignant cell lines with clinically relevant genetic alterations from many tumor types. Twenty-six patient-derived or established malignant cell lines were evaluated representing sarcoma, melanoma, small cell lung cancer (SCLC), non-small cell lung cancer (NSCLC), as well as bladder, ovarian and pancreatic cancers. The concentration ranges selected for each drug and investigational agent were based upon clinically achievable concentrations if the clinical Cmax of the agent was known.
Compounds. The drugs and compounds olaparib (NSC753686), talazoparib (NSC767125), berzosertib (NSC777718), elimusertib (NSC800525), nedisertib (NSC802822), VX-984 (NSC792969), AZD-1390 (NSC803789), temozolomide (NSC362856), topotecan (NSC609699), trabectedin (NSC813783), staurosporine (NSC755774), and gemcitabine (NSC613327) were obtained from the National Cancer Institute (NCI) Developmental Therapeutics Program Chemical Repository. The FDA-approved anticancer drug set is available from the Developmental Therapeutics Program at https://dtp.cancer.gov/organization/dscb/obtaining/available_plates.htm. […] The stock solutions were prepared in dimethyl sulfoxide (DMSO, Sigma-Aldrich, St. Louis, MO, cat. D2650) at 400-fold the tested concentration and stored at -70 degrees C. Prior to their use, the stock solutions were diluted in fresh medium and the final DMSO concentration in the assay was 0.25% (v/v). All drugs and investigational agents were tested over a range starting from a high concentration at or near the clinical Cmax and decreasing in half-log increments. If the clinical Cmax for an agent had not been determined, the highest concentration tested was 10 microM.
Cell Lines. The patient-derived cancer cell (PDC) lines: 156681-154-R-J1-PDC, 283228-195-R-J1-PDC, 287954-098-R-J1-PDC, 292921-168-R-J2-PDC, 349418-098-R-PDC, 425362-245-T-J1-PDC, 556581-035-R-J1-PDC, and BL0293-F563-PDC were received from the NCI Patient-Derived Models Repository (PDMR, https://pdmr.cancer.gov). The established cell lines HS-SY-2 (RRID:CVCL_8719), MPNST, and SYO-1 (RRID:CVCL_7146) were obtained from the Sloan Kettering Institute. The alveolar soft parts sarcoma cell line ASPS-1 (RRID:CVCL_S738) was established at the NCI and grown from internal seed stocks. The following established cell lines were purchased from the American Type Culture Collection (ATCC, Manassas, VA): G-401 (ATCC, cat. CRL-1441, RRID:CVCL_0270), SW982 (ATCC, cat. HTB-93, RRID:CVCL_1734), VA-ES-BJ (ATCC, cat. CRL-2138, RRID:CVCL_1785), NCI-H719 (ATCC, cat. CRL-5837, RRID:CVCL_1582), NCI-H196 (ATCC, cat. CRL-5823, RRID:CVCL_1509), NCI-H841 (ATCC, cat. CRL-5845, RRID:CVCL_1595), NCI-H1618 (ATCC, cat. CRL-5879, RRID:CVCL_1480), NCI-H1876 (ATCC, cat. CRL-5902, RRID:CVCL_1503), DMS 114 (ATCC, cat. CRL-2066; RRID:CVCL_1174), NCI-H211 (ATCC, cat. CRL-5824; RRID:CVCL_1529), and SW 1271 (ATCC, cat. CRL-2177, RRID:CVCL_1716). The small cell lung cancer cell line COR-L88 was purchased from Sigma-Aldrich (cat. 92031917-1VL, RRID:CVCL_1141). The non-small cell lung cancer cell lines NCI-H226 (RRID:CVCL_1544) and NCI-H322M (RRID:CVCL_1557) were established at the NCI and grown from internal seed stocks. Pooled donor human umbilical vein endothelial cells (HUVEC, Lonza, cat. CC-2519) and human mesenchymal stem cells (hMSC, Lonza, cat. PT-2501) were purchased from Lonza (Walkersville, MD).
Cell Culture. All cells were maintained in an incubator at 37 degrees C and 5% CO2 with 95% humidity. […]

[1] = second compound 0.003 µM, first compound 0.0316 µM
[2] = second compound 0.003 µM, first compound 0.1 µM
[3] = second compound 0.003 µM, first compound 0.316 µM
[4] = second compound 0.003 µM, first compound 1 µM
[5] = second compound 0.003 µM, first compound 3.16 µM
[6] = second compound 0.003 µM, first compound 10 µM
[7] = second compound 0.00949 µM, first compound 0.0316 µM
[8] = second compound 0.00949 µM, first compound 0.1 µM
[9] = second compound 0.00949 µM, first compound 0.316 µM
[10] = second compound 0.00949 µM, first compound 1 µM
[11] = second compound 0.00949 µM, first compound 3.16 µM
[12] = second compound 0.00949 µM, first compound 10 µM
[13] = second compound 0.03 µM, first compound 0.0316 µM
[14] = second compound 0.03 µM, first compound 0.1 µM
[15] = second compound 0.03 µM, first compound 0.316 µM
[16] = second compound 0.03 µM, first compound 1 µM
[17] = second compound 0.03 µM, first compound 3.16 µM
[18] = second compound 0.03 µM, first compound 10 µM
[19] = second compound 0.0949 µM, first compound 0.0316 µM
[20] = second compound 0.0949 µM, first compound 0.1 µM
[21] = second compound 0.0949 µM, first compound 0.316 µM
[22] = second compound 0.0949 µM, first compound 1 µM
[23] = second compound 0.0949 µM, first compound 3.16 µM
[24] = second compound 0.0949 µM, first compound 10 µM
[25] = second compound 0.3 µM, first compound 0.0316 µM
[26] = second compound 0.3 µM, first compound 0.1 µM
[27] = second compound 0.3 µM, first compound 0.316 µM
[28] = second compound 0.3 µM, first compound 1 µM
[29] = second compound 0.3 µM, first compound 3.16 µM
[30] = second compound 0.3 µM, first compound 10 µM

COc1ccc([C@@H](O)c2cc(-c3ncnc4cc(N5CCOCC5)ccc34)c(F)cc2Cl)nn1 + CC[C@@]1(O)C(=O)OCc2c1cc1n(c2=O)Cc2cc3c(CN(C)C)c(O)ccc3nc2-1
IC50 (second compound 0.003 µM): 2.58 µM | IC50 (second compound 0.00949 µM): < 0.0316 µM | IC50 (second compound 0.03 µM): < 0.0316 µM | IC50 (second compound 0.0949 µM): < 0.0316 µM | IC50 (second compound 0.3 µM): < 0.0316 µM | viability, T/C [1]: 98.9% | viability, T/C [2]: 71.7% | viability, T/C [3]: 95.3% | viability, T/C [4]: 77% | viability, T/C [5]: 44.2% | viability, T/C [6]: 14.9% | viability, T/C [7]: 42.3% | viability, T/C [8]: 27.2% | viability, T/C [9]: 54% | viability, T/C [10]: 48.5% | viability, T/C [11]: 36% | viability, T/C [12]: 11.8% | viability, T/C [13]: 2.44% | viability, T/C [14]: 3.37% | viability, T/C [15]: 3.22% | viability, T/C [16]: 2.13% | viability, T/C [17]: 2.99% | viability, T/C [18]: 0.99% | viability, T/C [19]: 4.05% | viability, T/C [20]: 2.6% | viability, T/C [21]: 6.24% | viability, T/C [22]: 2.56% | viability, T/C [23]: 1.11% | viability, T/C [24]: 1.58% | viability, T/C [25]: 2.38% | viability, T/C [26]: 2.02% | viability, T/C [27]: 2.24% | viability, T/C [28]: 2.64% | viability, T/C [29]: 1.97% | viability, T/C [30]: 0.5%

[2H]c1nc(C)nc([2H])c1-c1cc(NC[C@@H](C)c2cccc3c(C(=O)NC)ccnc23)ncn1 + CC[C@@]1(O)C(=O)OCc2c1cc1n(c2=O)Cc2cc3c(CN(C)C)c(O)ccc3nc2-1
IC50 (second compound 0.003 µM): < 0.0316 µM | IC50 (second compound 0.00949 µM): < 0.0316 µM | IC50 (second compound 0.03 µM): < 0.0316 µM | IC50 (second compound 0.0949 µM): < 0.0316 µM | IC50 (second compound 0.3 µM): < 0.0316 µM | viability, T/C [1]: 43.8% | viability, T/C [2]: 7.02% | viability, T/C [3]: 138% | viability, T/C [4]: 158% | viability, T/C [5]: 108% | viability, T/C [6]: 57.3% | viability, T/C [7]: 23% | viability, T/C [8]: 4.37% | viability, T/C [9]: 42.7% | viability, T/C [10]: 109% | viability, T/C [11]: 70.8% | viability, T/C [12]: 29.9% | viability, T/C [13]: 12% | viability, T/C [14]: 7.3% | viability, T/C [15]: 15.2% | viability, T/C [16]: 21.4% | viability, T/C [17]: 22% | viability, T/C [18]: 26.6% | viability, T/C [19]: 11.4% | viability, T/C [20]: 10.8% | viability, T/C [21]: 3.24% | viability, T/C [22]: 24.5% | viability, T/C [23]: 22.6% | viability, T/C [24]: 21.6% | viability, T/C [25]: 9.96% | viability, T/C [26]: 5.33% | viability, T/C [27]: 2.69% | viability, T/C [28]: 14.1% | viability, T/C [29]: 16.1% | viability, T/C [30]: 4.13%

COc1ccc([C@@H](O)c2cc(-c3ncnc4cc(N5CCOCC5)ccc34)c(F)cc2Cl)nn1 + Cn1nnc2c(C(N)=O)ncn2c1=O
IC50 (second compound 1 µM): 5.42 µM | IC50 (second compound 3.16 µM): < 0.0316 µM | IC50 (second compound 10 µM): < 0.0316 µM | IC50 (second compound 31.6 µM): < 0.0316 µM | IC50 (second compound 100 µM): < 0.0316 µM | viability, T/C (second compound 1 µM, first compound 0.0316 µM): 86.8% | viability, T/C (second compound 1 µM, first compound 0.1 µM): 92% | viability, T/C (second compound 1 µM, first compound 0.316 µM): 95.2% | outcome (second compound 1 µM, first compound 1 µM): inactive | viability, T/C (second compound 1 µM, first compound 3.16 µM): 72.6% | viability, T/C (second compound 1 µM, first compound 10 µM): 24.2% | viability, T/C (second compound 3.16 µM, first compound 0.0316 µM): 26.6% | viability, T/C (second compound 3.16 µM, first compound 0.1 µM): 27.2% | viability, T/C (second compound 3.16 µM, first compound 0.316 µM): 17.2% | viability, T/C (second compound 3.16 µM, first compound 1 µM): 22.2% | viability, T/C (second compound 3.16 µM, first compound 3.16 µM): 5.58% | viability, T/C (second compound 3.16 µM, first compound 10 µM): 6.14% | viability, T/C (second compound 10 µM, first compound 0.0316 µM): 3.36% | viability, T/C (second compound 10 µM, first compound 0.1 µM): 5.1% | viability, T/C (second compound 10 µM, first compound 0.316 µM): 5.03% | viability, T/C (second compound 10 µM, first compound 1 µM): 5.47% | viability, T/C (second compound 10 µM, first compound 3.16 µM): 5.06% | viability, T/C (second compound 10 µM, first compound 10 µM): 5.28% | viability, T/C (second compound 31.6 µM, first compound 0.0316 µM): 8.19% | viability, T/C (second compound 31.6 µM, first compound 0.1 µM): 12.4% | viability, T/C (second compound 31.6 µM, first compound 0.316 µM): 14.6% | viability, T/C (second compound 31.6 µM, first compound 1 µM): 17.1% | viability, T/C (second compound 31.6 µM, first compound 3.16 µM): 5.03% | viability, T/C (second compound 31.6 µM, first compound 10 µM): 5.45% | viability, T/C (second compound 100 µM, first compound 0.0316 µM): 20.6% | viability, T/C (second compound 100 µM, first compound 0.1 µM): 34.8% | viability, T/C (second compound 100 µM, first compound 0.316 µM): 63.5% | viability, T/C (second compound 100 µM, first compound 1 µM): 35.5% | viability, T/C (second compound 100 µM, first compound 3.16 µM): 20.1% | viability, T/C (second compound 100 µM, first compound 10 µM): 12.2%
